In patent publication US20080227780A1, “SOLUBLE EPOXIDE HYDROLASE INHIBITORS” (Arete Therapeutics, Inc., priority 2007, published 2008):

What follows are compounds tested on soluble epoxide hydrolase (sEH) (assay: Fluorescent assay for soluble epoxide hydrolase (CMNPC substrate), percent inhibition at the recited concentration). Conditions: Inhibition Conc. 50 nM.
Format: biochemical
Excerpt: Fluorescent Assay for Mouse and Human Soluble Epoxide Hydrolase Recombinant mouse sEH (MsEH) and human sEH (HsEH) were produced in a baculovirus expression system as previously reported. Grant et al., J. Biol. Chem., 268:17628-17633 (1993); Beetham et al., Arch. Biochem. Biophys., 305:197-201 (1993). The expressed proteins were purified from cell lysate by affinity chromatography. Wixtrom et al., Anal. Biochem., 169:71-80 (1988). Protein concentration was quantified using the Pierce BCA assay using bovine serum albumin as the calibrating standard. The preparations were at least 97% pure as judged by SDS-PAGE and scanning densitometry. They contained no detectable esterase or glutathione transferase activity which can interfere with the assay. The assay was also evaluated with similar results in crude cell lysates or homogenate of tissues. The IC50s for each inhibitor were determined according to the following procedure: […] Jones P. D. et al.; Analytical Biochemistry 2005; 343: pp. 66-75) Bis/Tris HCl 25 mM pH 7.0 containing 0.1 mg/mL of BSA (buffer […] at 0.25 mM in DMSO. Mother solution of enzyme in buffer A (Mouse sEH at 6 μg/mL and Human sEH at 5 μg/mL). Inhibitor dissolved in DMSO at the appropriate concentration. In a black 96 well plate, fill all the wells with 150 μL of buffer A. Add 2 μL of DMSO in well A2 and A3, and then add 2 μL of inhibitor solution in A1 and A4 through A12. Add 150 μL of buffer A in row A, then mix several time and transfer 150 μL to row B. Repeat this operation up to row H. The 150 μL removed from row H is discarded. Add 20 μL of buffer A in column 1 and 2, then add 20 μL of enzyme solution to column 3 to 12. Incubate the plate for 5 minutes in the plate reader at 30° C. During incubation prepare the working solution of substrate by mixing 3.68 mL of buffer A (4×0.920 mL) with 266 μL (2×133 μL) of substrate solution). At t=0, add 30 μL of working substrate solution with multi-channel pipette labeled “Briggs 303” and start the reading ([S]final: 5 μM). Read with ex: 330 nm (20 nm) and em: 465 nm (20 nm) every 30 second for 10 minutes. The velocities are used to analyze and calculate the IC50s. Tables 1-7 above provide the percent inhibition of the enzyme when tested at the concentration recited therein.

NS(=O)(=O)c1cccc(C(=O)N2CCC(NC(=O)NC34CC5CC(CC(C5)C3)C4)CC2)c1 [Compound 4-4, 3-(4-(3-(1-adamantyl)ureido)-piperidine-1-carbonyl)benzene-sulfonamide] and NS(=O)(=O)c1ccc(C(=O)N2CCC(NC(=O)NC34CC5CC(CC(C5)C3)C4)CC2)cc1 [Compound 4-3, 4-(4-(3-(1-adamantyl)ureido)-piperidine-1-carbonyl)benzene-sulfonamide] are the same in “% inh.” value: 93% for the first, 93% for the second.

Going from O=C(NC1CCCCC1)NC1CCN(S(=O)(=O)c2ccc(Cl)cc2)CC1 [Compound 7-42, 1-(1-(4-chlorophenylsulfonyl)piperidin-4-yl)-3-cyclohexylurea] to CC(C)(C)OC(=O)N1CCC(NC(=O)Nc2ccc(S(=O)(=O)N3CCOCC3)cc2)CC1 [Compound 5-1, tert-butyl 4-(3-(4-(morpholinosulfonyl)-phenyl)ureido)-piperidine-1-carboxylate], the “% inh.” value falls from 95% to 80%.

Going from CCC1CCC(NC(=O)NC2CCN(C(C)=O)CC2)CC1 (stereo not drawn) [Compound 7-4, 1-(1-acetylpiperidin-4-yl)-3-(4-ethylcyclohexyl)urea] to CC(=O)N1CCC(NC(=O)NC2CCC3CCCCC3C2)CC1 (stereo not drawn) [Compound 7-5, 1-(1-acetylpiperidin-4-yl)-3-(decahydronaphthalen-2-yl)urea], the “% inh.” value rises from 72% to 93%.

Compared with CC(C)(C)C(=O)N1CCC(NC(=O)Nc2ccc(OC(F)(F)F)cc2)CC1 [Compound 7-19, 1-(1-pivaloylpiperidin-4-yl)-3-(4-(trifluoro-methoxy)phenyl)urea], CC(C)(C)OC(=O)N1CCC(NC(=O)Nc2ccc(C(F)(F)F)cc2)CC1 [Compound 7-47, tert-butyl 4-(3-(4-(trifluoromethyl)phenyl)ureido)piperidine-1-carboxylate] is higher in “% inh.” value: 97% for the first, 100% for the second.

Going from O=C(NC1CCN(S(=O)(=O)Cc2ccccc2)CC1)NC12CC3CC(CC(C3)C1)C2 [Compound 7-29, 1-(1-(benzylsulfonyl)piperidin-4-yl)-3-adamantylurea] to Cc1c(Cl)cccc1S(=O)(=O)N1CCC(NC(=O)NC23CC4CC(CC(C4)C2)C3)CC1 [Compound 7-34, 1-(1-(3-chloro-2-methylphenylsulfonyl)piperidin-4-yl)-3-adamantylurea], the “% inh.” value falls from 93% to 91%.

Going from O=C(Nc1ccc(OC(F)(F)F)cc1)NC1CCN(C(=O)c2ccccn2)CC1 [Compound 7-2, 1-(1-picolinoylpiperidin-4-yl)-3-(4-(trifluoro-methoxy)phenyl)urea] to CC(C)(C)OC(=O)N1CCC(NC(=O)Nc2ccc(Oc3ccccc3)cc2)CC1 [Compound 7-9, tert-butyl 4-(3-(4-phenoxyphenyl)ureido)-piperidine-1-carboxylate], the “% inh.” value falls from 98% to 92%.

Going from O=C(NC1CCN(S(=O)(=O)c2cccc(C(F)(F)F)c2)CC1)NC12CC3CC(CC(C3)C1)C2 [Compound 7-38, 1-adamantyl-3-(1-(3-(trifluoromethyl)phenylsulfonyl)piperidin-4-yl)urea] to CC(C)OC(=O)N1CCC(NC(=O)NC23CC4CC(CC(C4)C2)C3)CC1 [Compound 7-23, isopropyl 4-(3-(1-adamantyl)ureido)piperidine-1-carboxylate], the “% inh.” value falls from 100% to 93%.

With CCCOc1ccc(NC(=O)NC2CCN(C(=O)OC(C)(C)C)CC2)cc1 [Compound 7-10, tert-butyl 4-(3-(4-propoxyphenyl)ureido)-piperidine-1-carboxylate] the “% inh.” value was 80%.

Same assay, conditions: Inhibition Conc. 200 nM

First: O=C(NC1CCN(C(=O)N2CCOCC2)CC1)NC12CC3CC(CC(C3)C1)C2 [Compound 7-82, 1-adamantyl-3-(1-(morpholine-4-carbonyl)piperidin-4-yl)urea]
Second: O=C(NC1CCN(C(=O)CCO)CC1)NC12CC3CC(CC(C3)C1)C2 [Compound 7-59, 1-adamantyl-3-(1-(3-hydroxypropanoyl)piperidin-4-yl)urea]
The “% inh.” value of the first is higher: 95% for the first, 86% for the second.

Compared with O=C(Nc1ccc(OC(F)(F)F)cc1)NC1CCN(S(=O)(=O)CCCO)CC1 [Compound 7-75, 1-(1-(3-hydroxypropylsulfonyl)piperidin-4-yl)-3-(4-(trifluoromethoxy)phenyl)urea], O=C(Nc1ccc(OC(F)(F)F)cc1)NC1CCN(C(=O)CCCO)CC1 [Compound 7-71, 1-(1-(4-hydroxybutanoyl)piperidin-4-yl)-3-(4-(trifluoromethoxy)phenyl)urea] is lower in “% inh.” value: 100% for the first, 84% for the second.

First: Cc1nc2ccc(NC(=O)NC3CCN(C(=O)OC(C)(C)C)CC3)cc2s1 [Compound 6-14, tert-butyl 4-(3-(2-methylbenzo[d]thiazol-6-yl)ureido)piperidine-1-carboxylate]
Second: CC(=O)N1CCC(NC(=O)NCc2ccc(C(F)(F)F)cc2)CC1 [Compound 1-3, 1-(1-acetylpiperidin-4-yl)-3-(4-(trifluoromethyl)benzyl)urea]
The “% inh.” value of the first is lower: 77% for the first, 93% for the second.

With CC(=O)N1CCC(NC(=O)NC23CCC(C)(CC2)CC3)CC1 [Compound 7-58, 1-(1-acetylpiperidin-4-yl)-3-(4-methylbicyclo[2.2.2]octan-1-yl)urea] the “% inh.” value was 84%.

Same assay, conditions: Inhibition Conc. 500 nM

Going from CC(C)(C)OC(=O)N1CCC(NC(=O)NC2CCCC2)CC1 [Compound 7-17, tert-butyl 4-(3-cyclopentylureido)-piperidine-1-carboxylate] to CC(C)(C)OC(=O)N1CCC(NC(=O)Nc2ccc(-c3nnn[nH]3)cc2)CC1 [Compound 6-8, tert-butyl 4-(3-(4-(1H-tetrazol-5-yl)phenyl)-ureido)piperidine-1-carboxylate], the “% inh.” value rises from 85% to 93%.

In the case of CC(=O)N1CCC(NC(=O)NC23CC4CC(CC(F)(C4)C2)C3)CC1 [Compound 3-4, 1-(1-acetylpiperidin-4-yl)-3-(3-fluoroadamant-1-yl)urea], the “% inh.” value is reported as 82%.

Same assay, conditions: Inhibition Conc. 2000 nM

First: CC(=O)N1CCC(NC(=O)NCC2CCOCC2)CC1 [Compound 1-4, 1-(1-acetylpiperidin-4-yl)-3-((tetrahydro-2H-pyran-4-yl)methyl)urea]
Second: CC(=O)N1CCC(NC(=O)NC2CCC2)CC1 [Compound 7-63, 1-(1-acetylpiperidin-4-yl)-3-cyclobutylurea]
The “% inh.” value of the first is higher: 80% for the first, 76% for the second.

Going from CC(=O)N1CCC(NC(=O)NC2CCS(=O)(=O)CC2)CC1 [Compound 8-5, 1-(1-acetylpiperidin-4-yl)-3-(1,1-dioxo-tetrahydro-2H-thiopyran-4-yl)urea] to CC(=O)N1CCC(NC(=O)NC2CCN(C(=O)OC(C)(C)C)CC2)CC1 [Compound 8-2, tert-butyl 4-(3-(1-acetylpiperidin-4-yl)ureido)piperidine-1-carboxylate], the “% inh.” value rises from 23% to 86%.

First: COC(=O)c1ccc(NC(=O)NC2CCN(C(C)=O)CC2)cc1 [Compound 7-69, methyl 4-(3-(1-acetylpiperidin-4-yl)ureido)benzoate]
Second: CC(=O)N1CCC(NC(=O)Nc2ccc(S(C)(=O)=O)cc2)CC1 [Compound 7-60, 1-(1-acetylpiperidin-4-yl)-3-(4-(methylsulfonyl)phenyl)urea]
The “% inh.” value of the first is higher: 69% for the first, 33% for the second.

COc1ccc(NC(=O)NC2CCN(C(C)=O)CC2)cn1 [Compound 6-11, 1-(1-acetylpiperidin-4-yl)-3-(6-methoxypyridin-3-yl)urea] and CC(=O)N1CCC(NC(=O)Nc2ccc(N(C)C)cc2)CC1 [Compound 7-52, 1-(1-acetylpiperidin-4-yl)-3-(4-(dimethylamino)phenyl)urea] are the same in “% inh.” value: 44% for the first, 44% for the second.

In the case of COC(=O)c1ccc(NC(=O)NC2CCN(C(=O)OC(C)(C)C)CC2)o1 [Compound 6-18, tert-butyl 4-(3-(5-(methoxycarbonyl)furan-2-yl)ureido)piperidine-1-carboxylate], the “% inh.” value is reported as 89%.

Same assay, conditions: Inhibition Conc. 5000 nM

For CC(=O)N1CCC(NC(=O)NC23CC4CC(C2)C(O)C(C4)C3)CC1 (single isomer, unassigned) [Compound 3-5, 1-(1-acetylpiperidin-4-yl)-3-(4-hydroxyadamant-1-yl)urea], the “% inh.” value was 87%.

Same assay, conditions: Inhibition Conc. 50000 nM

CC(=O)N1CCC(NC(=O)NC23CC4CC(CC(C4)C2O)C3)CC1 (stereo not drawn) [Compound 3-6, 1-(1-acetylpiperidin-4-yl)-3-(2-hydroxyadamant-1-yl)urea] was tested, and the “% inh.” value was 94%.
